Assay results as given in US7547679B2, “Ether linked macrolides useful for the treatment of microbial infections” (GlaxoSmithKline istrazivacki center Zagreb d.o.o, priority 2005, dated 2009).
Counter-ions that a name gives are not always drawn.

Legend:
Type in all cases: cell-based
[1] = test system: erythromycin resistant strain of Streptococcus pneumoniae; assay: MIC, microtiter broth serial dilution test, erythromycin resistant S. pneumoniae; conditions: read-out: MIC against erythromycin resistant strain of Streptococcus pneumoniae
[2] = test system: sensitive S. pneumoniae; assay: MIC, microtiter broth serial dilution test, sensitive S. pneumoniae; conditions: Streptococcus pneumoniae; sensitive strain; read-out: MIC against sensitive S. pneumoniae
[3] = test system: erythromycin resistant strain of Streptococcus pyogenes; assay: MIC, microtiter broth serial dilution test, erythromycin resistant S. pyogenes; conditions: read-out: MIC against erythromycin resistant strain of Streptococcus pyogenes
[4] = test system: sensitive S. pyogenes; assay: MIC, microtiter broth serial dilution test, sensitive S. pyogenes; conditions: Streptococcus pyogenes; sensitive strain; read-out: MIC against sensitive S. pyogenes
[5] = test system: E. faecalis; assay: MIC, microtiter broth serial dilution test, E. faecalis; conditions: Enterococcus faecalis; read-out: MIC against E. faecalis
[6] = test system: M. catarrhalis; assay: MIC, microtiter broth serial dilution test, M. catarrhalis; conditions: Moraxella catarrhalis; read-out: MIC against M. catarrhalis

| SMILES | MIC [1] [µg/mL] | MIC [2] [µg/mL] | MIC [3] [µg/mL] | MIC [4] [µg/mL] | MIC [5] [µg/mL] | MIC [6] [µg/mL] |
| --- | --- | --- | --- | --- | --- | --- |
| CC[C@H]1OC(=O)[C@H](C)[C@@H](OC2C[C@@](C)(OC)[C@@H](OCCNCCOCCOCCNc3cc4c(=O)c(C(=O)O)cn(C5CC5)c4cc3Cl)[C@H](C)O2)[C@H](C)[C@@H](O[C@@H]2O[C@H](C)C[C@H](N(C)C)[C@H]2O)[C@](C)(O)C[C@@H](C)CN(C)[C@H](C)[C@@H]2OC(=O)O[C@]12C (stereo partly shown) [Example 2, 4″-O-[2-(2-{2-[2-(3-Carboxy-7-chloro-1-cyclopropyl-4-oxo-1,4-dihydro-quinolin-6-yl-amino)-ethoxy]-ethoxy}-ethylamino)-ethyl]-azithromycin 11,12-cyclic carbonate] | ≤ 0.25 | ≤ 0.125 | ≤ 0.25 | ≤ 0.125 | ≤ 1 | – |
| CC[C@H]1OC(=O)[C@H](C)[C@@H](O[C@H]2C[C@@](C)(OC)[C@@H](OCCCNCCOCCCc3ccc4c(c3)c(=O)c(C(=O)O)cn4CC)[C@H](C)O2)[C@H](C)[C@@H](O[C@@H]2O[C@H](C)C[C@H](N(C)C)[C@H]2O)[C@](C)(O)C[C@@H](C)CN(C)[C@H](C)[C@@H](O)[C@]1(C)O [Example 5, 4″-O-(3-{2-[3-(3-Carboxy-1-ethyl-4-oxo-1,4-dihydro-quinolin-6-yl)-propoxy]-ethylamnio}-propyl)-azithromycin] | ≤ 0.25 | ≤ 0.125 | ≤ 0.25 | ≤ 0.125 | ≤ 1 | ≤ 1 |
| CC[C@H]1OC(=O)[C@H](C)[C@@H](O[C@H]2C[C@@](C)(OC)[C@@H](OCCCOCCOCCCc3ccc4c(c3)c(=O)c(C(=O)O)cn4CC)[C@H](C)O2)[C@H](C)[C@@H](O[C@@H]2O[C@H](C)C[C@H](N(C)C)[C@H]2O)[C@](C)(O)C[C@@H](C)CN(C)[C@H](C)[C@@H](OC)[C@]1(C)O [Example 8, 4″-O-(3-{2-[3-(3-Carboxy-1-ethyl-4-oxo-1,4-dihydro-quinolin-6-yl)-propoxy]-ethoxy}-propyl)-11-O-methyl azithromycin] | ≤ 0.25 | – | ≤ 0.25 | – | – | ≤ 1 |
| CC[C@H]1OC(=O)[C@H](C)[C@@H](O[C@H]2C[C@@](C)(OC)[C@@H](OCCCNC(=O)CCOCCCc3ccc4c(c3)c(=O)c(C(=O)O)cn4N(C)C)[C@H](C)O2)[C@H](C)[C@@H](O[C@@H]2O[C@H](C)C[C@H](N(C)C)[C@H]2O)[C@](C)(OC)C[C@H](C)C(=O)[C@H](C)[C@@H](O)[C@]1(C)O [Example 9, 4″-O-(3-{3-[3-(3-Carboxy-1-dimethylamino-4-oxo-1,4-dihydro-quinolin-6-yl)-propoxy]-propionylamino}-propyl)-6-O-methyl-erythromycin A] | – | ≤ 0.125 | ≤ 0.25 | ≤ 0.125 | ≤ 1 | ≤ 1 |
| CC[C@H]1OC(=O)[C@H](C)[C@@H](O[C@H]2C[C@@](C)(OC)[C@@H](OCCNCCOCCOCCc3ccc4c(c3)c(=O)c(C(=O)O)cn4CC)[C@H](C)O2)[C@H](C)[C@@H](O[C@@H]2O[C@H](C)C[C@H](N(C)C)[C@H]2O)[C@](C)(OC)C[C@@H](C)C(=O)[C@H](C)[C@@H](O)[C@]1(C)O [Example 18, 4″-O-{2-({2-[(2-{[2-(3-Carboxy-1-ethyl-4-oxo-1,4-dihydro-6-quinolinyl)ethyl]oxy}ethyl)oxy]ethyl}amino)ethyl}-6-O-methyl-erythromycin A formate] | ≤ 0.25 | ≤ 0.125 | ≤ 0.25 | ≤ 0.125 | ≤ 1 | ≤ 1 |

Other lines, results leading:

| MIC [1] [µg/mL] | MIC [2] [µg/mL] | MIC [3] [µg/mL] | MIC [4] [µg/mL] | MIC [5] [µg/mL] | MIC [6] [µg/mL] | SMILES |
| --- | --- | --- | --- | --- | --- | --- |
| ≤ 0.25 | ≤ 0.125 | ≤ 0.25 | ≤ 0.125 | ≤ 1 | – | CC[C@H]1OC(=O)[C@H](C)[C@@H](OC2C[C@@](C)(OC)[C@@H](OCCNCCOCCNc3cc4c(=O)c(C(=O)O)cn(C5CC5)c4cc3Cl)[C@H](C)O2)[C@H](C)[C@@H](O[C@@H]2O[C@H](C)C[C@H](N(C)C)[C@H]2O)[C@](C)(O)C[C@@H](C)CN(C)[C@H](C)[C@@H]2OC(=O)O[C@]12C (stereo partly shown) [Example 3, 4″-O-(2-{2-[2-(3-Carboxy-7-chloro-1-cyclopropyl-4-oxo-1,4-dihydro-quinolin-6-ylamino)-ethoxy]-ethylamino}-ethyl)-azithromycin 11,12-cyclic carbonate] |
| ≤ 0.25 | ≤ 0.125 | ≤ 0.25 | ≤ 0.125 | ≤ 1 | – | CC[C@H]1OC(=O)[C@H](C)[C@@H](O[C@H]2C[C@@](C)(OC)[C@@H](OCCCNC(=O)CCOCCOCCNc3cc4c(=O)c(C(=O)O)cn(C5CC5)c4cc3Cl)[C@H](C)O2)[C@H](C)[C@@H](O[C@@H]2O[C@H](C)C[C@H](N(C)C)[C@H]2O)[C@](C)(O)C[C@@H](C)CN(C)[C@H](C)[C@@H](O)[C@]1(C)O [Example 11, 4″-O-[3-(3-{2-[2-(3-carboxy-7-chloro-1-cyclopropyl-4-oxo-1,4-dihydro-quinolin-6-ylamino)-ethoxy]-ethoxy}-propionylamino)-propyl]-azithromycin] |
| ≤ 0.25 | ≤ 0.125 | ≤ 0.25 | ≤ 0.125 | ≤ 1 | ≤ 1 | CC[C@H]1OC(=O)[C@H](C)[C@@H](O[C@H]2C[C@@](C)(OC)[C@@H](OCCCOCCCOCCCc3ccc4c(c3)c(=O)c(C(=O)O)cn4C3CC3)[C@H](C)O2)[C@H](C)[C@@H](O[C@@H]2O[C@H](C)C[C@H](N(C)C)[C@H]2O)[C@](C)(O)C[C@@H](C)CN(C)[C@H](C)[C@@H](O)[C@]1(C)O [Example 13, 4″-O-(3-{3-[3-(3-Carboxy-1-cyclopropyl-4-oxo-1,4-dihydro-quinolin-6-yl)-propoxy]-propoxy}-propyl)-azithromycin] |
| ≤ 0.25 | ≤ 0.125 | ≤ 0.25 | ≤ 0.125 | ≤ 1 | ≤ 1 | CC[C@H]1OC(=O)[C@H](C)[C@@H](O[C@H]2C[C@@](C)(OC)[C@@H](OCCCOCCOCCCc3ccc4c(c3)c(=O)c(C(=O)O)cn4N(C)C)[C@H](C)O2)[C@H](C)[C@@H](O[C@@H]2O[C@H](C)C[C@H](N(C)C)[C@H]2O)[C@](C)(O)C[C@@H](C)CN(C)[C@H](C)[C@@H](O)[C@]1(C)O [Example 15, 4″-O-(3-{2-[3-(3-Carboxy-1-dimethylamino-4-oxo-1,4-dihydro-quinolin-6-yl)-propoxy]-ethoxy}-propyl)-azithromycin] |
| ≤ 0.25 | ≤ 0.125 | ≤ 0.25 | ≤ 0.125 | ≤ 1 | – | CC[C@H]1OC(=O)[C@H](C)[C@@H](O[C@H]2C[C@@](C)(OC)[C@@H](OCCNCCOCCNc3cc4c(cc3F)c(=O)c(C(=O)O)cn4C3CC3)[C@H](C)O2)[C@H](C)[C@@H](O[C@@H]2O[C@H](C)C[C@H](N(C)C)[C@H]2O)[C@](C)(O)C[C@@H](C)CN(C)[C@H](C)[C@H]2OC(=O)O[C@@]21C [Example 16, 4″-O-(2-{2-[2-(3-Carboxy-6-fluoro-1-cyclopropyl-4-oxo-1,4-dihydro-quinolin-7-ylamino)-ethoxy]-ethylamino}-ethyl)-azithromycin 11,12-cyclic carbonate] |
| ≤ 0.25 | ≤ 0.125 | ≤ 0.25 | ≤ 0.125 | ≤ 1 | ≤ 1 | CC[C@H]1OC(=O)[C@H](C)[C@@H](O[C@H]2C[C@@](C)(OC)[C@@H](OCCN(C)CCOCCOCCc3ccc4c(c3)c(=O)c(C(=O)O)cn4CC)[C@H](C)O2)[C@H](C)[C@@H](O[C@@H]2O[C@H](C)C[C@H](N(C)C)[C@H]2O)[C@](C)(OC)C[C@@H](C)C(=O)[C@H](C)[C@@H](O)[C@]1(C)O [Example 19, 4″-O-{2-({2-[(2-{[2-(3-Carboxy-1-ethyl-4-oxo-1,4-dihydro-6-quinolinyl)ethyl]oxy}ethyl)oxy]ethyl}methylamino)ethyl}-6-O-methyl-erythromycin A] |
